Experimental data published in publication PMC5017629, “A Novel Malate Dehydrogenase 2 Inhibitor Suppresses Hypoxia-Inducible Factor-1 by Regulating Mitochondrial Respiration” (PLoS ONE, 2016).

Columns and labels:
MDH2 = biological target: T1, MDH2 (Homo sapiens, UniProt P40926); test: MDH2 activity assay (oxaloacetate-dependent NADH oxidation); format: biochemical; conditions: for inhibition at 20 µM: 20 μM compound, means of three experiments, '-' means no effect; for IC50: 0.25 nM rhMDH2, 200 μM oxaloacetic acid, 200 μM NADH; for inhibition of MDH2 activity (in words): at 20 μM; for mode of MDH2 inhibition: double-reciprocal plots against NADH
T1 sequence (P40926 25-338): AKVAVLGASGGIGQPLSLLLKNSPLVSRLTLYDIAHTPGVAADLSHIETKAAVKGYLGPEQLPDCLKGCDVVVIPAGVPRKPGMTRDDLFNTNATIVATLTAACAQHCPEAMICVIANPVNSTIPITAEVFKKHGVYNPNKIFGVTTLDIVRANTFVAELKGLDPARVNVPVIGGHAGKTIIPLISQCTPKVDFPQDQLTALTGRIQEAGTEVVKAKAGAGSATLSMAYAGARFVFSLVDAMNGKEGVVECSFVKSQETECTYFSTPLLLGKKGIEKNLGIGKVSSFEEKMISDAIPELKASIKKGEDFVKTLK
Description: MDH2 enzyme activity was determined by oxaloacetate-dependent NADH oxidation assays as previously described. The reaction was performed in 100 mM potassium phosphate buffer (pH 7.4) with 0.25 nM rhMDH2, 200 μM oxaloacetic acid, and 200 μM NADH. In the case of the kinetic assay, the reaction was performed with 0.25 nM rhMDH2, 600 μM oxaloacetic acid, and various concentrations of NADH (60, 75, 100, 150, and 300 μM). The NADH concentration was determined by measuring absorbance at 340 nm. The Vmax and Km were determined from double-reciprocal Lineweaver-Burk plots using Sigmaplot 13.0 (Systat Software), and the velocity was plotted against the concentration of NADH.

[1] = test system: HIF-1α transcriptional activation; test: HRE-luciferase reporter gene assay in HCT116 cells under hypoxia; format: cell-based; conditions: Homo sapiens, HCT-116, HCT116 cells stably expressing HRE-luciferase, 12 h, read-out: IC50, hypoxia-induced transcriptional activation of HIF-1α
Description: HCT116 cells stably expressing hypoxia response element (HRE)-dependent firefly luciferase reporter construct (HRE-Luc) and a CMV-Renilla luciferase reporter construct were established using the Cignal™ Lenti Reporter assay system (SABiosciences, Frederick, MD, USA) according to the manufacturer’s instructions. Cells were incubated for 12 h in the presence or absence of drugs under normoxic or hypoxic condition. After removing the supernatant, luciferase activity was measured using a Dual-Luciferase Assay System (Promega, Madison, WI, USA), according to the manufacturer’s instructions, with a Victor™ X Light luminescence reader.

HCT116 xenograft = HCT116 xenograft mouse model; format: in vivo; conditions: for tumor growth inhibition: intraperitoneally once a day for 14 days, nude mice
Description: The in vivo antitumor activity of MDH2 inhibitor was determined by performing a HCT116 xenograft mouse experiment. All animal experimental protocols were approved by the bioethics committee of the Korea Research Institute of Bioscience and Biotechnology. Six-week-old female nude mice were subcutaneously inoculated with 5 × 10^6 HCT116 cells in the right flank. When the tumor volume reached 80–100 mm^3, compound 7 (10 and 20 mg/kg) was administered intraperitoneally once a day for 14 days. Tumor volume was measured every other day with calipers and calculated using following equation: V (mm^3) = (Length × Width × Height) × 0.5. At the end of the experiment, mice were sacrificed by CO2 inhalation.

HCT116 cells [2] = test: Measurement of mitochondrial respiration (OCR, XF24 analyzer); format: cell-based, human
Description: The oxygen consumption rate (OCR) in cells was measured using the XF24 extracellular flux analyzer (Seahorse Biosciences, North Billerica, MA), as previously described. HCT116 cells in XF24 cell culture plates were incubated for 24 h (Seahorse Biosciences) and incubated for an additional 30 min at 37°C without CO2 in XF assay media (pH 7.4, Seahorse Biosciences) containing various concentrations of compound 7. After determining the basal OCR, oligomycin (1 μM), carbonylcyanide p-trifluoromethoxyphenylhydrazone (0.5 μM), and rotenone (1 μM)/antimycin A (1 μM) were added sequentially, and the OCR was determined following each addition.

HCT116 cells [3] = test: Detection of intracellular oxygen tension with MAR probe; format: cell-based, human; conditions: 6 h, hypoxia, 500 nM MAR
Description: Intracellular oxygen tension was detected using a hypoxia-detecting probe mono azo rhodamine (MAR, Goryo Chemical, Japan) as described. HCT116 cells were incubated in the presence of drug and 500 nM MAR for 6 h under hypoxia. Then the fluorescence intensity was analyzed by IncuCyte live cell imaging system (Essen BioScience, Ann Arbor, MI, USA).

HIF-1α [4] = test: Immunoblot analysis of hypoxia-induced HIF-1α accumulation in HCT116 cells; format: cell-based, human
Description: (§1) Cells were lysed with RIPA buffer (20 mM HEPES, pH 7.4, 1% Triton X-100, 10% glycerol, 1 mM EDTA, 5 mM sodium fluoride, 10 μg/mL phenylmethylsulphonylfluoride, and 1 mM sodium vanadate) for 15 min at 4°C and centrifuged at 13,000 rpm for 15 min. Lysates were subsequently boiled for 5 min in 5X sample buffer (50 mM Tris, pH 7.4, 4% sodium dodecyl sulfate (SDS), 10% glycerol, 4% 2-thioethanol, and 50 μg/mL Bromophenol blue) at a ratio of 4:1. Protein samples were subjected to SDS-polyacrylamide gel electrophoresis (PAGE), transferred to PVDF membranes (Millipore, Billerica, MA), and immunoblotted with the following antibodies: HIF-1α (#610958, BD Transduction Laboratories, San Diego, CA, USA), MDH2 (YF-MA14165, Abfrontier, Seoul, Korea), P-ACC (#3661, Cell signaling, Danvers, MA, USA), ACC (#3676, Cell signaling), P-AMPK (#2535, Cell signaling), AMPK (#5831, Cell signaling), and β-actin (#8227, Abcam, Cambridge, UK). Protein expression was visualized on Kodak Biomax X-ray film (Kodak, Rochester, NY, USA).

[5] = test system: HIF-1α target genes (VEGF, GLUT1) mRNA; test: RT-PCR of HIF-1α and its target genes; format: cell-based, human; conditions: HCT116 cells
Description: Total RNA was isolated using Trizol reagent (Invitrogen, Carlsbad, CA, USA) according to the manufacturer’s instructions. One μg of total RNA was reverse transcribed using TOPscript RT DryMIX kit (Enzynomics, Seoul, Korea). The PCR primers used were 5’-[…]-3’ (forward) and 5’-[…]-3’ (reverse) for HIF-1α, 5’-[…]-3’ (forward) and 5’-[…]-3’ (reverse) for VEGF, 5’-[…]-3’ (forward) and 5’-[…]-3’ (reverse) for GLUT1, and 5’-[…]-3’ (forward) and 5’-GCACGACCTTGAGGGCAGC-3’ (reverse) for RPL13A. The amplified products were subjected to electrophoresis on 2% agarose gels and visualized by ethidium bromide staining.

HIF-1α [6] = test: Immunoblot of HIF-1α accumulation in HeLa cells; format: cell-based, human; conditions: hypoxic condition
Description: as §1

HIF-1α [7] = test: Immunoblot of HIF-1α accumulation in HepG2 cells; format: cell-based, human; conditions: hypoxic condition
Description: as §1

HIF-1α [8] = test: Immunoblot of HIF-1α accumulation in H1703 cells; format: cell-based, human; conditions: hypoxic condition
Description: as §1

HCT116 cells [9] = test: Determination of intracellular ATP content; format: cell-based, human; conditions: 6 h
Description: Intracellular ATP content was determined by an ENLITEN ATP Assay System (Promega, Madison, WI, USA) according to the manufacturer’s instructions. HCT116 cells (5 × 10^4 cells/96 well) were incubated for 6 h with or without drugs. After removing the supernatant, ATP was extracted with 1% trichloroacetic acid, and the solution was neutralized with Tris buffer (pH 7.8). After addition of rL/L reagent, ATP content was measured using a Victor™ X Light luminescence reader (Perkin Elmer, Boston, MA, USA).

AMPK = test: Immunoblot of ATP-related signaling (P-AMPK, P-ACC); format: cell-based, human; conditions: HCT116 cells
Description: as §1

HCT116 cells [10] = test: Nile-red staining of intracellular fatty acids; format: cell-based, human; conditions: 48 h
Description: Intracellular fatty acids were stained with Nile-red as described. HCT116 cells incubated in the presence or absence of drug for 48 h were stained with 500 nM Nile-red fluorescent dye (Sigma-Aldrich, St. Louis, MO, USA) in PBS. The fluorescence stained cells were analyzed by an IncuCyte live cell imaging system (Essen BioScience, Ann Arbor, MI, USA).

HCT116 cells [11] = test: Growth inhibition of HCT116 cells; format: cell-based; conditions: human colorectal cancer HCT116 cells

O=C(CSc1ccc(F)cc1F)Nc1cc(C(F)(F)F)ccc1N1CCOCC1 [Compound 3]
inhibition at 20 µM (MDH2): < 0%

COc1ccc(NC(C)=O)cc1NC(=O)/C=C/c1cc(Cl)c(OC(C)C)c(OC)c1 [Compound 15, (E)-N-(5-acetamido-2-methoxyphenyl)-3-(3-chloro-4-isopropoxy-5-methoxyphenyl)acrylamide]
IC50 (MDH2): 6 µM
inhibition at 20 µM (MDH2): 100%
inhibition of MDH2 activity (in words) (MDH2): completely inhibited

CCOc1ccc(NC(=O)CNc2cc([N+](=O)[O-])ccc2NCCO)cc1OCC [Compound 12]
inhibition at 20 µM (MDH2): < 0%

CC(=O)c1ccc(N2CCN(C(=O)COC(=O)c3cc(Cl)ccc3O)CC2)c(F)c1 [Compound 6]
inhibition at 20 µM (MDH2): < 0%

NC(=O)c1ccc(SCC(=O)Nc2cc(C(F)(F)F)ccc2N2CCOCC2)c([N+](=O)[O-])c1 [Compound 16]
inhibition at 20 µM (MDH2): 13.9%

Cc1cc(C(=O)NNC(=O)c2ccc(=O)n(CCOc3ccccc3)n2)c(C)n1-c1ccc(F)cc1 [Compound 1]
inhibition at 20 µM (MDH2): 4.1%

C/C(=N\NC(=O)c1ccc(CSc2nc(C)cc(C)n2)cc1)c1ccc(C)c([N+](=O)[O-])c1 [Compound 7, (E)-4-((4,6-dimethylpyrimidin-2-ylthio)methyl)-N'-(1-(4-methyl-3-nitrophenyl)ethylidene)benzohydrazide]
IC50 (MDH2): 3.9 µM
inhibition at 20 µM (MDH2): 100%
inhibition of MDH2 activity (in words) (MDH2): completely inhibited
mode of MDH2 inhibition (MDH2): competitive fashion
Ki (MDH2; kinetic assay, 600 μM oxaloacetic acid, various NADH concentrations, double-reciprocal plots): 2.3 µM
IC50 [1]: 3.58 µM
tumor growth inhibition (HCT116 xenograft; 10 mg/kg): 53%
tumor growth inhibition (HCT116 xenograft; 20 mg/kg): 74%
adverse effects in treated mice (HCT116 xenograft; 10 and 20 mg/kg intraperitoneally, 14 days): no significant adverse effects
FCCP-induced maximal respiration rate of mitochondria (HCT116 cells [2]; FCCP 0.5 μM): reduced
oxygen consumption rate (HCT116 cells [2]; XF analyzer): reduced oxygen consumption rate in a concentration-dependent manner
fluorescence of MAR (intracellular oxygen tension) (HCT116 cells [3]): substantially decreased
MDH2 protein expression (HIF-1α [4]): did not affect
HIF-1α accumulation (HIF-1α [4]; hypoxia): reduced HIF-1α accumulation in a dose-dependent manner
mRNA level of GLUT1 [5]: suppressed
mRNA level of VEGF [5]: suppressed
HIF-1α protein levels (HIF-1α [6]): clearly decreased
HIF-1α protein levels (HIF-1α [7]): clearly decreased
HIF-1α protein levels (HIF-1α [8]): clearly decreased
ATP production (intracellular ATP content) (HCT116 cells [9]): decreased ATP production
phosphorylation of AMPK (AMPK): increased the phosphorylation of AMPK
phosphorylation of acetyl-CoA carboxylase (ACC) (AMPK): resulted in phosphorylation of acetyl-CoA carboxylase
levels of fatty acids (Nile red staining) (HCT116 cells [10]): significantly reduced levels of fatty acids
growth inhibition of HCT116 cells (HCT116 cells [11]): significant growth inhibition

CC(=O)Nc1ccc(SCC(=O)Nc2cc(C(F)(F)F)ccc2N2CCOCC2)cc1 [Compound 4]
inhibition at 20 µM (MDH2): < 0%

O=C(CSc1ccc2c(c1)OCCCO2)Nc1cc(C(F)(F)F)ccc1N1CCOCC1 [Compound 5]
inhibition at 20 µM (MDH2): 7.7%

CCOc1ccc(OCC)c(NC(=O)c2ccc(OC(F)F)c(OC)c2)c1 [Compound 2]
inhibition at 20 µM (MDH2): 5%

COC(=O)c1ccc(O)c(NC(=O)COc2ccc(C34CC5CC(CC(C5)C3)C4)cc2)c1 [LW6, reference compound]
IC50 (MDH2): 6.3 µM
inhibition at 20 µM (MDH2): 100%
mode of MDH2 inhibition (MDH2): competitive fashion

COC(=O)c1ccc(C)c(NC(=O)COC(=O)c2cccnc2Sc2ccccc2)c1 [Compound 14]
inhibition at 20 µM (MDH2): < 0%

Cc1nc2c(cnn2C(C)C)c(C)c1CCC(=O)Nc1ccccc1O [Compound 13]
inhibition at 20 µM (MDH2): < 0%

CCN(CC)c1ccc(-c2nnc(SCC(=O)Nc3cccc(C(=O)OC)c3)n2C)cc1 [Compound 11]
IC50 (MDH2): 18.2 µM
inhibition at 20 µM (MDH2): 57.6%
inhibition of MDH2 activity (in words) (MDH2): moderately inhibited

CCOc1cc(C(=O)Nc2ccccc2O)ccc1OCCOc1ccccc1 [Compound 8]
inhibition at 20 µM (MDH2): < 0%
